Experimental data as given in ChEMBL document CHEMBL1201862, “PubChem BioAssay data set” (2004).
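96-well plates; 48 h exposure; 5 concentrations. Endpoints by linear interpolation between flanking doses. Not reached: highest tested concentration assigned. GI50 = concentration required for 50% inhibition of growth.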 Calls of active or inactive are those of the source. Cut-off read from the data, not from the text of the source: active = GI50 up to about 1.1 µM and inactive = higher.

Columns and labels:
Experiment in all cases: inhibition of tumour cell growth, NCI panel, 48 h
EKVX = system: EKVX
HCT-116 = system: HCT-116
HOP-62 = system: HOP-62
LOX IMVI = system: LOX IMVI
MCF7 = system: MCF7
NCI-H460 = system: NCI-H460
NCI/ADR-RES = system: NCI/ADR-RES
OVCAR-4 = system: OVCAR-4
SF-295 = system: SF-295
SF-539 = system: SF-539
SK-MEL-28 = system: SK-MEL-28
SK-OV-3 = system: SK-OV-3
SNB-75 = system: SNB-75
SR = system: SR
T47D = system: T47D
UACC-257 = system: UACC-257
UO-31 = system: UO-31
BT-549 = system: BT-549
OVCAR-3 = system: OVCAR-3
SN12C = system: SN12C

| SMILES | GI50 (EKVX) | GI50 (HCT-116) | GI50 (HOP-62) | GI50 (LOX IMVI) | GI50 (MCF7) | GI50 (NCI-H460) | GI50 (NCI/ADR-RES) | GI50 (OVCAR-4) | GI50 (SF-295) | GI50 (SF-539) | GI50 (SK-MEL-28) | GI50 (SK-OV-3) | GI50 (SNB-75) | GI50 (SR) | GI50 (T47D) | GI50 (UACC-257) | GI50 (UO-31) | GI50 (BT-549) | GI50 (OVCAR-3) | GI50 (SN12C) |
| --- | --- | --- | --- | --- | --- | --- | --- | --- | --- | --- | --- | --- | --- | --- | --- | --- | --- | --- | --- | --- |
| O=C(NC1CCCCC1)c1cc2ccccc2cc1O | 34.1 µM (inactive) | 18.7 µM (inactive) | 35.7 µM (inactive) | 38.8 µM (inactive) | 39.2 µM (inactive) | 26.1 µM (inactive) | 17.7 µM (inactive) | 20.3 µM (inactive) | 29.9 µM (inactive) | 24 µM (inactive) | 49.3 µM (inactive) | 49.1 µM (inactive) | 45.5 µM (inactive) | 38.7 µM (inactive) | 42.6 µM (inactive) | 36.6 µM (inactive) | 32.4 µM (inactive) | – | – | – |
| c1ccc2c(c1)nnn2CN1CCOCC1 | > 100 µM (inactive) | > 100 µM (inactive) | > 100 µM (inactive) | 36.6 µM (inactive) | – | 46.3 µM (inactive) | > 100 µM (inactive) | > 100 µM (inactive) | > 100 µM (inactive) | – | > 100 µM (inactive) | – | – | 25 µM (inactive) | > 100 µM (inactive) | > 100 µM (inactive) | > 100 µM (inactive) | > 100 µM (inactive) | 28.9 µM (inactive) | 39.8 µM (inactive) |
| CC1=[N+]([O-])C(C)(C)N(O)C1(C)C | > 100 µM (inactive) | > 100 µM (inactive) | > 100 µM (inactive) | > 100 µM (inactive) | > 100 µM (inactive) | > 100 µM (inactive) | > 100 µM (inactive) | > 100 µM (inactive) | > 100 µM (inactive) | > 100 µM (inactive) | > 100 µM (inactive) | > 100 µM (inactive) | > 100 µM (inactive) | > 100 µM (inactive) | > 100 µM (inactive) | – | > 100 µM (inactive) | – | > 100 µM (inactive) | > 100 µM (inactive) |
| COc1ccc(CC2C(=O)NC(C)C(=O)N(C)C3Cc4ccc(cc4)Oc4cc(ccc4O)CC(C(=O)NC(C)C(=O)NC(C)C(=O)N2C)N(C)C3=O)cc1 (configuration not stated) | 0.0175 µM (active) | 0.0175 µM (active) | 0.0179 µM (active) | 0.0409 µM (active) | 0.0175 µM (active) | 0.0175 µM (active) | 2.44 µM (inactive) | 0.0175 µM (active) | – | 0.0175 µM (active) | 0.0175 µM (active) | 0.0175 µM (active) | 0.0175 µM (active) | < 0.0001 µM (active) | < 0.0001 µM (active) | 0.0175 µM (active) | 0.857 µM (active) | – | – | 0.0175 µM (active) |
| O=C(Nn1c(-c2ccccc2)nc2ccccc2c1=O)c1cccc([N+](=O)[O-])c1 | 57.9 µM (inactive) | > 100 µM (inactive) | > 100 µM (inactive) | > 100 µM (inactive) | 38 µM (inactive) | 53.8 µM (inactive) | – | 86.1 µM (inactive) | – | > 100 µM (inactive) | 79.6 µM (inactive) | > 100 µM (inactive) | > 100 µM (inactive) | 47.2 µM (inactive) | < 0.01 µM (active) | > 100 µM (inactive) | 39.3 µM (inactive) | 32.3 µM (inactive) | > 100 µM (inactive) | > 100 µM (inactive) |
| Cc1[nH]c2ccccc2c1C1Cc2ccccc2N1C(=O)/C(Cl)=C/c1ccccc1 (configuration not stated) | > 48.9 µM (inactive) | 36.5 µM (inactive) | > 100 µM (inactive) | > 100 µM (inactive) | – | > 100 µM (inactive) | – | > 88.1 µM (inactive) | > 31 µM (inactive) | 40.9 µM (inactive) | > 100 µM (inactive) | > 100 µM (inactive) | 4.65 µM (inactive) | 29.2 µM (inactive) | – | > 100 µM (inactive) | 16.3 µM (inactive) | – | > 100 µM (inactive) | > 100 µM (inactive) |
| O=C(CSC1=NCCN1)Nc1ccccc1 | 45.2 µM (inactive) | 23.8 µM (inactive) | 48 µM (inactive) | 18 µM (inactive) | – | 31.1 µM (inactive) | 26.4 µM (inactive) | 65.8 µM (inactive) | 29.4 µM (inactive) | – | 26.3 µM (inactive) | – | 21.5 µM (inactive) | 44.3 µM (inactive) | 12.9 µM (inactive) | 17.1 µM (inactive) | 27.4 µM (inactive) | 24.5 µM (inactive) | 20.7 µM (inactive) | 17.5 µM (inactive) |
| O=C(O)c1nc2ccccc2nc1Nc1ccc(Cl)c(Cl)c1 | 33.1 µM (inactive) | 22.5 µM (inactive) | 16.1 µM (inactive) | 28.8 µM (inactive) | – | 13.6 µM (inactive) | 27.9 µM (inactive) | – | 17.3 µM (inactive) | 19.9 µM (inactive) | 13 µM (inactive) | 28.3 µM (inactive) | 56.5 µM (inactive) | 47.9 µM (inactive) | 17.7 µM (inactive) | 31.8 µM (inactive) | 15.6 µM (inactive) | 16.1 µM (inactive) | 11.5 µM (inactive) | 20.1 µM (inactive) |
| CC(C)(C)OC(=O)N1Cc2cc(O)ccc2C[C@H]1C(=O)O | > 100 µM (inactive) | > 100 µM (inactive) | > 100 µM (inactive) | > 100 µM (inactive) | > 100 µM (inactive) | > 100 µM (inactive) | > 100 µM (inactive) | > 100 µM (inactive) | > 100 µM (inactive) | > 100 µM (inactive) | > 100 µM (inactive) | > 100 µM (inactive) | > 100 µM (inactive) | > 100 µM (inactive) | > 100 µM (inactive) | > 100 µM (inactive) | – | – | > 100 µM (inactive) | > 100 µM (inactive) |
| Cc1cc(N(CCC#N)S(=O)(=O)c2ccccc2)ccc1C=O | > 100 µM (inactive) | > 100 µM (inactive) | > 100 µM (inactive) | > 100 µM (inactive) | – | > 100 µM (inactive) | – | > 100 µM (inactive) | > 100 µM (inactive) | > 100 µM (inactive) | > 100 µM (inactive) | > 100 µM (inactive) | > 100 µM (inactive) | > 100 µM (inactive) | – | > 100 µM (inactive) | > 100 µM (inactive) | – | > 100 µM (inactive) | > 100 µM (inactive) |
| O=C(CC(=O)c1cccc2ccccc12)C(=O)Nc1nccs1 | > 100 µM (inactive) | > 100 µM (inactive) | > 100 µM (inactive) | > 100 µM (inactive) | – | > 100 µM (inactive) | – | > 100 µM (inactive) | > 100 µM (inactive) | > 100 µM (inactive) | > 100 µM (inactive) | > 100 µM (inactive) | 66.2 µM (inactive) | > 100 µM (inactive) | – | > 100 µM (inactive) | > 100 µM (inactive) | – | > 100 µM (inactive) | > 100 µM (inactive) |
| COC(=O)CCC(=O)c1ccc2c(c1)CC1(C2)Cc2ccc3c(c2C1)CCCC3=O (configuration not stated) | 56.8 µM (inactive) | > 34 µM (inactive) | > 53.5 µM (inactive) | 20 µM (inactive) | 12.2 µM (inactive) | 25.2 µM (inactive) | 29 µM (inactive) | 24.1 µM (inactive) | 26 µM (inactive) | 11.9 µM (inactive) | 25.5 µM (inactive) | 50.6 µM (inactive) | 86.5 µM (inactive) | 0.297 µM (active) | 34.8 µM (inactive) | 18.9 µM (inactive) | 18.2 µM (inactive) | – | 10.1 µM (inactive) | 38.1 µM (inactive) |
| O=C(c1cccnc1)N1N=C(c2ccc3c(c2)OCO3)CC1(O)c1cc(F)c(Cl)cc1Cl (configuration not stated) | 20.5 µM (inactive) | 16.3 µM (inactive) | 18 µM (inactive) | 16.4 µM (inactive) | – | 17.4 µM (inactive) | 18.5 µM (inactive) | 22.4 µM (inactive) | 19.1 µM (inactive) | 16.7 µM (inactive) | 25.5 µM (inactive) | 27.9 µM (inactive) | 15.2 µM (inactive) | 14.7 µM (inactive) | 3.59 µM (inactive) | 21.1 µM (inactive) | 17.3 µM (inactive) | 20.9 µM (inactive) | 11 µM (inactive) | 18.5 µM (inactive) |
| O=[N+]([O-])c1cc2c(c3nonc13)OCCCCO2 | 18.2 µM (inactive) | 1.75 µM (inactive) | 4.37 µM (inactive) | 2.81 µM (inactive) | 7.76 µM (inactive) | 3.76 µM (inactive) | 10.5 µM (inactive) | 14.2 µM (inactive) | 17.5 µM (inactive) | 2.82 µM (inactive) | 9.89 µM (inactive) | 26.4 µM (inactive) | 10.6 µM (inactive) | – | 26.5 µM (inactive) | 15.5 µM (inactive) | 4.19 µM (inactive) | – | 2.19 µM (inactive) | 4.6 µM (inactive) |
| C/C(Sc1ccccc1)=C1/CCCN(Cc2ccccc2)C1 | 32.3 µM (inactive) | – | 20.6 µM (inactive) | 14.1 µM (inactive) | 20.2 µM (inactive) | 21.8 µM (inactive) | 24.9 µM (inactive) | 35.2 µM (inactive) | 17.4 µM (inactive) | 28 µM (inactive) | 23.8 µM (inactive) | 32.7 µM (inactive) | 23.6 µM (inactive) | 16.1 µM (inactive) | 13.3 µM (inactive) | 18.7 µM (inactive) | 15.3 µM (inactive) | – | 16.6 µM (inactive) | – |
| CC(=O)O[C@H]1C(=O)[C@@]2(C)[C@H]([C@H](OC(=O)c3ccccc3)[C@]3(O)C[C@H](OC(=O)[C@H](O)[C@@H](NC(=O)c4ccco4)c4ccccc4)C(C)=C1C3(C)C)[C@]1(OC(C)=O)CO[C@@H]1C[C@@H]2O | 0.0112 µM (active) | < 0.00125 µM (active) | < 0.00125 µM (active) | < 0.00125 µM (active) | < 0.00125 µM (active) | < 0.00125 µM (active) | 2.64 µM (inactive) | > 10.7 µM (inactive) | 0.00624 µM (active) | < 0.00125 µM (active) | > 12.5 µM (inactive) | < 0.00125 µM (active) | < 0.00125 µM (active) | < 0.00125 µM (active) | < 0.00125 µM (active) | – | 0.627 µM (active) | – | < 0.00125 µM (active) | – |
